Patent publication US8778920B2, “3-cyano-quinoline derivatives with antiproliferative activity” (Janssen Pharmaceutica NV, priority 2004, dated 2014)
Counter-ions that a name gives are not always drawn.

Test system: ovarian carcinoma cell line (SKOV3)
Assay: Serum starved, EGF stimulated proliferation assay on ovarian carcinoma SKOV3 cells (MTT)
Format: cell-based
Details: Homo sapiens, SK-OV-3, serum free, 72 hours EGF 100 ng/ml, b231 calls the values pIC50, read-out: SKOV3 cell (C3): IC50 (converted)
Description: The ovarian carcinoma cell line (SKOV3) was used in an epidermal growth factor stimulated cell proliferation assay, to assess the inhibitory effect of the compounds on EGF in whole cells. In a first step the SKOV3 cells were incubated for 24 hours in the presence of 10% FCS serum. In the second step the cells were incubated with the compounds to be tested in a serum free condition (37° C. and 5% (v/v) CO2) and subsequently stimulated for 72 hours with EGF at a final concentration of 100 ng/ml. The effect of the compounds on the EGF stimulation was finally assessed in a standard MTT cell viability assay.

IC50: 158 nM
SMILES: COc1cc2ncc(C#N)c3c2cc1OCCCCCNCc1ccc(Br)cc1N3 [Compound 2, 4,6-ethanediylidenepyrido[4,3-b][6,1,12]benzoxadiazacyclopentadecine-1-carbonitrile, 17-bromo-8,9,10,11,12,13,14,19-octahydro-20-methoxy-, monohydrochloride]
